Data published in patent US8975400B2, “2,3-dihydroimidazo[1, 2-c] pyrimidin-5(1 H)-one compounds use as LP-PLA2 inhibitors” (Glaxo Group Limited, priority 2011, dated 2015).
Where a name gives a salt, the structure may show the parent alone.

Legend:
[1] = biological target: T1, recombinant human Lp-PLA2 (Homo sapiens, UniProt Q13093); experiment: Recombinant human Lp-PLA2 assay (rhLp-PLA2, PED6 assay); type: biochemical; conditions: recombinant human Lp-PLA2, PED6 substrate; upper limit for pIC50 in this assay is 9.3
T1 sequence (Q13093 22-441): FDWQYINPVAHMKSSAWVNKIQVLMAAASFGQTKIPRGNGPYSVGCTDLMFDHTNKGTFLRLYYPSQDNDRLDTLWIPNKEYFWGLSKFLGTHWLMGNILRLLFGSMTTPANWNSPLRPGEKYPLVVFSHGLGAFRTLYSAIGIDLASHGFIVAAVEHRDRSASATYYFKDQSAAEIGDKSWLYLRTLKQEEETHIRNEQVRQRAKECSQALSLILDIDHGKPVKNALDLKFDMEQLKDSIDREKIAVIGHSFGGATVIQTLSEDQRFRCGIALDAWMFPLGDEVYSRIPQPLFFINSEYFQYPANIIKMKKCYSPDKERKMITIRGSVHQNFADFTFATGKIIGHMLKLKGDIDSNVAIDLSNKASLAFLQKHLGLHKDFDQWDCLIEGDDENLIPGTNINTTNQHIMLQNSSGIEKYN
Procedure, shortened: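 Compound preincubated 30 min with rhLp-PLA2 (4 nM or 110 pM) in 50 mM HEPES pH 7.4, 150 mM NaCl, 1 mM CHAPS, then PED6 substrate (4 μM or 5 μM) added. After 20 min at room temperature protected from light, fluorescence read at ex 480/em 540. pIC50 derived from serial-dilution curves.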

Lp-PLA2 in human plasma = biological target: T2, Lp-PLA2 in human plasma (Homo sapiens, UniProt Q13093); experiment: Lp-PLA2 human plasma assay (Thio-PAF assay); type: biochemical; conditions: pooled human plasma, 2-thio-PAF substrate; read-out: pIC50 in the thio-PAF assay (converted)
T2 construct: This assay may detect the activity of Lp-PLA2 in human plasma; from tissue; host or cells: pooled human plasma
T2 sequence (Q13093 22-441): T1 sequence (Q13093 22-441)
Procedure, shortened: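 Pooled human plasma preincubated 30 min with serially diluted compounds, then 2-thio-PAF substrate with CPM and NEM added in 50 mM HEPES pH 7.4, 150 mM NaCl, 1 mM CHAPS. TFA-quenched after 2 min, 40 min at RT, fluorescence ex 380/em 485; pIC50 from curve fit.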

| Structure (SMILES) | IC50 [1] | IC50 (Lp-PLA2 in human plasma) |
| --- | --- | --- |
| CN1CCn2c1cc(OCc1ccc(Oc3cccc(C(F)(F)F)c3)c(C#N)c1)nc2=O [Example E1, 5-(((1-methyl-5-oxo-1,2,3,5-tetrahydroimidazo[1,2-c]pyrimidin-7-yl)oxy)methyl)-2-(3-(trifluoromethyl)phenoxy)benzonitrile] | ≤ 10 nM | ≤ 100 nM |
| CN1CCn2c1cc(OCc1cc(F)c(Oc3ccc(C(F)(F)F)nc3)c(F)c1)nc2=O [Example E2, 7-((3,5-difluoro-4-((6-(trifluoromethyl)pyridin-3-yl)oxy)benzyl)oxy)-1-methyl-2,3-dihydroimidazo[1,2-c]pyrimidin-5(1H)-one] | ≤ 10 nM | ≤ 1000 nM |
| CN1CCn2c1cc(OCc1ccc(Oc3ccc(C(F)(F)F)nc3)c(F)c1)nc2=O [Example E3, 7-((3-fluoro-4-((6-(trifluoromethyl)pyridin-3-yl)oxy)benzyl)oxy)-1-methyl-2,3-dihydroimidazo[1,2-c]pyrimidin-5(1H)-one] | ≤ 10 nM | ≤ 1000 nM |
| CN1CCn2c1cc(OCc1ccc(Oc3ccc(F)c(F)c3)c(F)c1)nc2=O [Example E4, 7-((4-(3,4-difluorophenoxy)-3-fluorobenzyl)oxy)-1-methyl-2,3-dihydroimidazo[1,2-c]pyrimidin-5(1H)-one] | ≤ 1 nM | ≤ 100 nM |
| CN1CCn2c1cc(OCc1ccc(Oc3ccc(Cl)c(C(F)(F)F)c3)cc1)nc2=O [Example E5, 7-((4-(4-chloro-3-(trifluoromethyl)phenoxy)benzyl)oxy)-1-methyl-2,3-dihydroimidazo[1,2-c]pyrimidin-5(1H)-one] | ≤ 10 nM | ≤ 100 nM |
| CN1CCn2c1cc(OCCc1ccc(Oc3ccc(Cl)c(C(F)(F)F)c3)cc1)nc2=O [Example E13, 7-(4-(4-chloro-3-(trifluoromethyl)phenoxy)phenethoxy)-1-methyl-2,3-dihydroimi-dazo[1,2-c]pyrimidin-5(1H)-one] | ≤ 10 nM | ≤ 1000 nM |
| CN1CCn2c1cc(OCc1ccc(Oc3ccc(F)c(Cl)c3)c(F)c1)nc2=O [Example E15, 7-((4-(3-chloro-4-fluorophenoxy)-3-fluorobenzyl)oxy)-1-methyl-2,3-dihydroimida-zo[1,2-c]pyrimidin-5(1H)-one] | ≤ 10 nM | ≤ 1000 nM |
| CN1CCn2c1cc(OCc1ccc(Oc3cccc(F)c3)c(C#N)c1)nc2=O [Example E18, 2-(3-fluorophenoxy)-5-(((1-methyl-5-oxo-1,2,3,5-tetrahydroimidazo[1,2-c]pyrimidin-7-yl)oxy)methyl)benzonitrile] | ≤ 10 nM | ≤ 1000 nM |
| CN1CCn2c1cc(OCc1ccc(Oc3cccc(C(F)(F)F)c3)c(F)c1)nc2=O [Example E20, 7-((3-fluoro-4-(3-(trifluoromethyl)phenoxy)benzyl)oxy)-1-methy-2,3-dihydroimid-azo[1,2-c]pyrimidin-5(1H)-one] | ≤ 10 nM | ≤ 1000 nM |
| CN1CCn2c1cc(OCc1ccc(Oc3ccc(C(F)(F)F)cc3)c(C#N)c1)nc2=O [Example E24, 5-(((1-methyl-5-oxo-1,2,3,5-tetrahydroimidazo[1,2-c]pyrimidin-7-yl)oxy)methyl)-2-(4-(trifluoromethyl)phenoxy)benzonitrile, trifluoroacetic acid salt] | ≤ 10 nM | ≤ 1000 nM |
| CN1CCn2c1cc(OCc1ccc(Oc3ccc(Cl)c(F)c3)cc1)nc2=O [Example E25, 7-((4-(4-chloro-3-fluorophenoxy)benzyl)oxy)-1-methyl-2,3-dihydroimidazo[1,2-c]pyrimidin-5(1H)-one] | ≤ 10 nM | ≤ 1000 nM |
| CN1CCn2c1cc(OCc1ccc(Oc3ccc(F)c(C(F)(F)F)c3)cc1)nc2=O [Example E29, 7-((4-(4-fluoro-3-(trifluoromethyl)phenoxy)benzyl)oxy)-1-methyl-2,3-dihydroimid-azo[1,2-c]pyrimidin-5(1H)-one] | ≤ 10 nM | ≤ 1000 nM |
| CN1CCn2c1cc(OCc1ccc(Oc3ccc(F)c(F)c3)c(C#N)c1)nc2=O [Example E34, 2-(3,4-difluorophenoxy)-5-(((1-methyl-5-oxo-1,2,3,5-tetrahydroimidazo[1,2-c]pyrimidin-7-yl)oxy)methyl)benzonitrile] | ≤ 10 nM | ≤ 100 nM |
| CN1CCn2c1cc(OCc1ccc(Oc3ccc(C(F)(F)F)cn3)c(C#N)c1)nc2=O [Example E35, 5-(((1-methyl-5-oxo-1,2,3,5-tetrahydroimidazo[1,2-c]pyrimidin-7-yl)oxy)methyl)-2-((5-(trifluoromethyl)pyridin-2-yl)oxy)benzonitrile, trifluoroacetic acid salt] | ≤ 10 nM | ≤ 1000 nM |
| CN1CCn2c1cc(OCc1ccc(Oc3ccc(Cl)c(F)c3)c(C#N)c1)nc2=O [Example E37, 2-(4-chloro-3-fluorophenoxy)-5-(((1-methyl-5-oxo-1,2,3,5-tetrahydroimidazo[1,2-c]pyrimidin-7-yl)oxy)methyl)benzonitrile, trifluoroacetic acid salt] | ≤ 10 nM | ≤ 1000 nM |
| CN1CCn2c1cc(OCc1ccc(Oc3cc(F)c(F)c(F)c3)c(C#N)c1)nc2=O [Example E38, 5-(((1-methyl-5-oxo-1,2,3,5-tetrahydroimidazo[1,2-c]pyrimidin-7-yl)oxy)methyl)-2-(3,4,5-trifluorophenoxy)benzonitrile, trifluoroacetic acid salt] | ≤ 10 nM | ≤ 1000 nM |
| CN1CCn2c1cc(OCc1ccc(Oc3ccc(Cl)c(Cl)c3)c(F)c1)nc2=O [Example E41, 7-((4-(3,4-dichlorophenoxy)-3-fluorobenzyl)oxy)-1-methyl-2,3-dihydroimidazo[1,2-c]pyrimidin-5(1H)-one] | ≤ 10 nM | ≤ 1000 nM |
| CN1CCn2c1cc(OCc1ccc(Oc3cc(F)c(F)c(F)c3)c(F)c1)nc2=O [Example E42, 7-((3-fluoro-4-(3,4,5-trifluorophenoxy)benzyl)oxy)-1-methyl-2,3-dihydroimi-dazo[1,2-c]pyrimidin-5(1H)-one] | ≤ 10 nM | ≤ 1000 nM |
| CN1CCn2c1cc(OCc1ccc(Oc3ccc(F)c(C(F)(F)F)c3)c(C#N)c1)nc2=O [Example E44, 2-(4-fluoro-3-(trifluoromethyl)phenoxy)-5-(((1-methyl-5-oxo-1,2,3,5-tetrahydroi-midazo[1,2-c]pyrimidin-7-yl)oxy)methyl)benzonitrile, trifluoroacetic acid salt] | < 0.501 nM | ≤ 100 nM |
| CN1CCn2c1cc(OCc1ccc(Oc3ccc(F)c(C(F)(F)F)c3)c(F)c1)nc2=O [Example E45, 7-((3-fluoro-4-(4-fluoro-3-(trifluoromethyl)phenoxy)benzyl)oxy)-1-methyl-2,3-dihydroimidazo[1,2-c]pyrimidin-5(1H)-one, trifluoroacetic acid salt] | ≤ 1 nM | ≤ 100 nM |
| CN1CCn2c1cc(OCc1ccc(Oc3ccc(C(F)(F)F)nc3)c(C#N)c1)nc2=O [Example E49, 5-(((1-methyl-5-oxo-1,2,3,5-tetrahydroimidazo[1,2-c]pyrimidin-7-yl)oxy)methyl)-2-((6-(trifluoromethyl)pyridin-3-yl)oxy)benzonitrile] | ≤ 10 nM | ≤ 100 nM |
| CC(C)N1CCn2c1cc(OCc1ccc(Oc3cccc(C(F)(F)F)c3)c(C#N)c1)nc2=O [Example E51, 5-(((1-isopropyl-5-oxo-1,2,3,5-tetrahydroimidazo[1,2-c]pyrimidin-7-yl)oxy)methy)-2-(3-(trifluoromethyl)phenoxy)benzonitrile, trifluoroacetic acid salt] | ≤ 1 nM | ≤ 100 nM |
| CN1CCn2c1cc(OCc1ccc(Oc3ccc(F)c(C#N)c3)c(C#N)c1)nc2=O [Example E52, 5-(2-cyano-4-(((1-methyl-5-oxo-1,2,3,5-tetrahydroimidazo[1,2-c]pyrimidin-7-yl)oxy)methyl)phenoxy)-2-fluorobenzonitrile] | ≤ 10 nM | ≤ 100 nM |
| CC(C)N1CCn2c1cc(OCc1ccc(Oc3ccc(F)c(F)c3)c(C#N)c1)nc2=O [Example E53, 2-(3,4-difluorophenoxy)-5-(((1-isopropyl-5-oxo-1,2,3,5-tetrahydroimidazo[1,2-c]pyrimidin-7-yl)oxy)methyl)benzonitrile] | ≤ 10 nM | ≤ 1000 nM |
| CC(C)N1CCn2c1cc(OCc1ccc(Oc3ccc(Cl)c(C(F)(F)F)c3)cc1)nc2=O [Example E59, 7-((4-(4-chloro-3-(trifluoromethyl)phenoxy)benzyl)oxy)-1-isopropyl-2,3-dihydroim-idazo[1,2-c]pyrimidin-5(1H)-one] | ≤ 10 nM | ≤ 100 nM |
| CN1CCn2c1cc(OCc1ccc(Oc3cccc(C#N)c3)c(C#N)c1)nc2=O [Example E62, 2-(3-cyanophenoxy)-5-(((l-methyl-5-oxo-1,2,3,5-tetrahydroimidazo[1,2-c]pyrimidin-7-yl)oxy)methyl)benzonitrile, trifluoroacetic acid salt] | ≤ 10 nM | ≤ 1000 nM |
